Data published in ChEMBL document CHEMBL1201862, “PubChem BioAssay data set” (2004).
Calls of active or inactive are those of the source.

Legend:
Caspase-3 = target: T1, Caspase-3 (Homo sapiens, UniProt P42574); format: functional;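 also: Dose-response selectivity test against caspase-3 for candidate inhibitors of sentrin-specific proteases (SENPs)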
T1 sequence (P42574 whole entry): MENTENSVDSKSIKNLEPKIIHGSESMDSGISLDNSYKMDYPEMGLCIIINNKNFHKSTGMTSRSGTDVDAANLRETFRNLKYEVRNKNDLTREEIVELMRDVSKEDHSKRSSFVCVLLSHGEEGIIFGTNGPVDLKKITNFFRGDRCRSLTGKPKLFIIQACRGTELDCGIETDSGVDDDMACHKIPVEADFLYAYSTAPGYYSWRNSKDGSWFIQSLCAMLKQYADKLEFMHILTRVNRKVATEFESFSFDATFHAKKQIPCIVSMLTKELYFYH

[1] = target: T2, Sentrin-specific protease 7 (Homo sapiens, UniProt Q9BQF6); format: functional;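 also: Luminescence-based dose-response confirmation of ultra-high-throughput screening hits, measuring inhibition of SENP7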
T2 sequence (Q9BQF6 whole entry): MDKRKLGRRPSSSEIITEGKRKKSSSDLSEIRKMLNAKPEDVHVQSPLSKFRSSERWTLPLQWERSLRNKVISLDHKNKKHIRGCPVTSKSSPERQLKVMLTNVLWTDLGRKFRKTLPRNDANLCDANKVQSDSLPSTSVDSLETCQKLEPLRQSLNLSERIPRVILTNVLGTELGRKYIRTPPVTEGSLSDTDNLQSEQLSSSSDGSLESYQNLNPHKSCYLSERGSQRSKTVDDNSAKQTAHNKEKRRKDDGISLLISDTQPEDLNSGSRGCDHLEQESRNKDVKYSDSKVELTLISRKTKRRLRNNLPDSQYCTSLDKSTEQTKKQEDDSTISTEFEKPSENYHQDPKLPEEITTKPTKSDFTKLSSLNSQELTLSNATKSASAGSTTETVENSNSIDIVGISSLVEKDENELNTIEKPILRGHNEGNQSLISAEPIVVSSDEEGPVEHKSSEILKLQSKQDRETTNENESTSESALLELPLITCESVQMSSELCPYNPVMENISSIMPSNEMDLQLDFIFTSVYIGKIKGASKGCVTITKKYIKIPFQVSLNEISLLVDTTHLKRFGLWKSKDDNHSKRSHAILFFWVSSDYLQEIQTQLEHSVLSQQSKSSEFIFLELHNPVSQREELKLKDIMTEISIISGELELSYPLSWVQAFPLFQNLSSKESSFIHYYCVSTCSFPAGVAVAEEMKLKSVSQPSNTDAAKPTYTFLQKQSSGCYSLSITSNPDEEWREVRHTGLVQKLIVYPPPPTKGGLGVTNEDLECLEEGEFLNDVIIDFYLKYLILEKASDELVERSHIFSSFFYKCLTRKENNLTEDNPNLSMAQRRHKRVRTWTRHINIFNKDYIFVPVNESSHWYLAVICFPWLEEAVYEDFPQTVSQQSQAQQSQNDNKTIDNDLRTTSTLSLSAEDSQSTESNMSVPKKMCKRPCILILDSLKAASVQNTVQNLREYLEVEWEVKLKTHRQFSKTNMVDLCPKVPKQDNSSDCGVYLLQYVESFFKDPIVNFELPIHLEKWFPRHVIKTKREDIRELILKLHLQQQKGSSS

[2] = target: T3, Sentrin-specific protease 8 (Homo sapiens, UniProt Q96LD8); format: functional;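 also: luminescence read-out of SENP8 inhibition, dose-response confirmation following an ultra-high-throughput screen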
T3 sequence (Q96LD8 whole entry): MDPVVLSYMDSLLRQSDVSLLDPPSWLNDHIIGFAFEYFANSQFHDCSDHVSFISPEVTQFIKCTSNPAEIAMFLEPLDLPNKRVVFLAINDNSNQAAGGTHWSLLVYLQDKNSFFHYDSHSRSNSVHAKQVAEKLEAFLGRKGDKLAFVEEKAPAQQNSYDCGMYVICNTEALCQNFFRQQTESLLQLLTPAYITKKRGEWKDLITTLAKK

[3] = target: T4, Heat shock factor protein 1 (Mus musculus, UniProt P38532); test: enhancement of HSF1-driven luciferase signal – cell-based, NIH3T3, luminescence, dose retest, confirmation (AID 435004); format: functional;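 also: stress induced by proteasome inhibitor MG132 added 30 min after compound; luciferase reporter driven by HSF1 response element in NIH3T3 cells; actives raise luminescence as potentiators of the MG132 stress response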
T4 sequence (P38532 whole entry): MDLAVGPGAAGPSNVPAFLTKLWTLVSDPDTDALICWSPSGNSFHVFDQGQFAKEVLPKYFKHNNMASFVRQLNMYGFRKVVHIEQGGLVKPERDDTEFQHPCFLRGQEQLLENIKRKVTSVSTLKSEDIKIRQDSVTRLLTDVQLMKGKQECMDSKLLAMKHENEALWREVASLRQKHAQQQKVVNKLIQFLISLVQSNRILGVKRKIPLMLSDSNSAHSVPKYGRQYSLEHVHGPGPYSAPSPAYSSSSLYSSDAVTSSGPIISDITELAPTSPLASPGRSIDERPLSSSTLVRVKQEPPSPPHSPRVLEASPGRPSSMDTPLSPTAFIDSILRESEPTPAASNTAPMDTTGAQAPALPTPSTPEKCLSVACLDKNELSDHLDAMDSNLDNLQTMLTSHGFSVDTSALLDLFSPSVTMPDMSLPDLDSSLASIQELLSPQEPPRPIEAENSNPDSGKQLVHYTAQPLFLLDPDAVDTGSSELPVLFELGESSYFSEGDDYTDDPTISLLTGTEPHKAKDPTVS

[4] = target: T5, Sentrin-specific protease 6 (Homo sapiens, UniProt Q9GZR1); format: functional;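 also: Luminescence-based dose-response confirmatory assay of SENP6 inhibition, following up an ultra-high-throughput screen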
T5 sequence (Q9GZR1 whole entry): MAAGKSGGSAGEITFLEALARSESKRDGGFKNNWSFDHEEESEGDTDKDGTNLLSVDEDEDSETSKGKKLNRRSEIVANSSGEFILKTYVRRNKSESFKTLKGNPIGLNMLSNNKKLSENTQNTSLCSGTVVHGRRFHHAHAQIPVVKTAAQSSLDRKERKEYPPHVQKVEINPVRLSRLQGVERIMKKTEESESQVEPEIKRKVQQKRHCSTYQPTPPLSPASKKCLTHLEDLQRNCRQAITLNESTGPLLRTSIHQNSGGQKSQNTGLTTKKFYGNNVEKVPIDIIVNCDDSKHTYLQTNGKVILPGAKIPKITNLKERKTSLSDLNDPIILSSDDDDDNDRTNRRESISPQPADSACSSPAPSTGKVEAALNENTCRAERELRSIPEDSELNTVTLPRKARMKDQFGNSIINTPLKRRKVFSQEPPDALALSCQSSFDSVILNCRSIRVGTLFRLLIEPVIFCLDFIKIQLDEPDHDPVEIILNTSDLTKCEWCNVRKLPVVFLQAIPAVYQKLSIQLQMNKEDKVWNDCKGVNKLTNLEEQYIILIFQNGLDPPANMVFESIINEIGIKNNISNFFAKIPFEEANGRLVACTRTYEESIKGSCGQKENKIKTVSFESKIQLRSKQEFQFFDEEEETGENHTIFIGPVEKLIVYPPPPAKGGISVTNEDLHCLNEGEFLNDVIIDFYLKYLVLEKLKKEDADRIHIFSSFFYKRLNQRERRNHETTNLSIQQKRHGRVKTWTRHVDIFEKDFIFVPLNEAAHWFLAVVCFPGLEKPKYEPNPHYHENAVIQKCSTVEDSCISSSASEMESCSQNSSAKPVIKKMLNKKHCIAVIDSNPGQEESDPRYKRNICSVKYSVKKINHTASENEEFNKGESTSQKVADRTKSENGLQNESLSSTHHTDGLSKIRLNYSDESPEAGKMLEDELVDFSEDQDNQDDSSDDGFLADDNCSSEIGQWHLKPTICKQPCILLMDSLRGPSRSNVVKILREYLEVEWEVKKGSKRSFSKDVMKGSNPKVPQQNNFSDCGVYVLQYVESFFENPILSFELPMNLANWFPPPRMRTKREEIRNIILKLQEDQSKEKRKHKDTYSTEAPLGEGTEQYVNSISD

Escherichia coli = test: microbe, parasite or virus in culture
H4 = test: Luminescence Cell-Based Dose Response HTS to Identify Activators of 5'UTR Stem-Loop Driven Prion Protein mRNA Translation in H4 Neuroglioblastoma Cells. [Related pubchem assays: 1829 (Project Summary), 1814 (Primary HTS)]; format: functional; details: Homo sapiens
[5] = Luminescence Cell-Based Dose Response HTS to Identify Activators of Luciferase Translation or Activity in H4 […] Cells. [Related pubchem assays: 1829 (Project Summary), 1814 (Primary HTS)]; format: functional
Vero [6] = test: cells; format: functional, cell-based; details: Chlorocebus sabaeus
Vero [7] = test: cells; format: functional; details: Chlorocebus sabaeus
Phospholipase A2 = Phospholipase A2 (Homo sapiens, UniProt P04054); format: functional;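 also: confirmatory dose-response counterscreen on phospholipase A2, testing hits that came from an ultra-high-throughput screen for ATG4B inhibitors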
Chain of Phospholipase A2 (P04054 whole entry): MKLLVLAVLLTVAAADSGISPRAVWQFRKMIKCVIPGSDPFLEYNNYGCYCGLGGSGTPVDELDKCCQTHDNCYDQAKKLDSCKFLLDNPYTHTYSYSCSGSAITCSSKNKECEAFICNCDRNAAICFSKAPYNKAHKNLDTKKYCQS

Cysteine protease ATG4B = target: T6, Cysteine protease ATG4B (Homo sapiens, UniProt Q9Y4P1); format: functional;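 also: Fluorescence-based dose-response confirmation assay measuring inhibition of ATG4B activity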
T6 sequence (Q9Y4P1 whole entry): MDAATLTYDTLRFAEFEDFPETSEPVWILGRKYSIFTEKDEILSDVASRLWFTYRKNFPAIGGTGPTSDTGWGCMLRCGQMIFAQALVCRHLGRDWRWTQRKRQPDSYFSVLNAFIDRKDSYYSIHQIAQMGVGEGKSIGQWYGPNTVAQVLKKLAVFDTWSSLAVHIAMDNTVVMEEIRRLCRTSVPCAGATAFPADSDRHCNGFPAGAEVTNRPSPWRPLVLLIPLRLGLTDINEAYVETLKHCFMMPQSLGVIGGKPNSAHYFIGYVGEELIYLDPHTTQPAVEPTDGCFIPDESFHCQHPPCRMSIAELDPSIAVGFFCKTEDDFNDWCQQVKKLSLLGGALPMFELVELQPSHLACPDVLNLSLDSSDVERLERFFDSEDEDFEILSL

[8] = viability of uninfected HEp-2 cells – cell-based, HTS, cytotoxicity control for RSV inhibitor project, dose response (AID 2410); format: functional; details: human respiratory syncytial virus
Tumor necrosis factor = Tumor necrosis factor (Homo sapiens, UniProt P01375); test: analog potency on TNFa NF-kB signaling – cell-based, revised, SAR follow-up (AID 2337); format: functional
Chain of Tumor necrosis factor (P01375 whole entry): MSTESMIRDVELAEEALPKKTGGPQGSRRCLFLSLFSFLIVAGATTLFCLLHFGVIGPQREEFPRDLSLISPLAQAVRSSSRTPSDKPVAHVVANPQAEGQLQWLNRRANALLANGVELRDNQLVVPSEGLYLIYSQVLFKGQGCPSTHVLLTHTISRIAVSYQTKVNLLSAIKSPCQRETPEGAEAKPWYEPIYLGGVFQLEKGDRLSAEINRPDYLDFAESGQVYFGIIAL

HEK293 = test: cells; details: Homo sapiens;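 also: cells exposed to compound for 14 hours overnight before viability readout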
[9] = target: T7, Nucleotide-binding oligomerization domain-containing protein 1 (Homo sapiens, UniProt Q9Y239); test: blockers of NOD1 pathway activity – revised, SAR follow-up (AID 2333); format: functional
T7 sequence (Q9Y239 whole entry): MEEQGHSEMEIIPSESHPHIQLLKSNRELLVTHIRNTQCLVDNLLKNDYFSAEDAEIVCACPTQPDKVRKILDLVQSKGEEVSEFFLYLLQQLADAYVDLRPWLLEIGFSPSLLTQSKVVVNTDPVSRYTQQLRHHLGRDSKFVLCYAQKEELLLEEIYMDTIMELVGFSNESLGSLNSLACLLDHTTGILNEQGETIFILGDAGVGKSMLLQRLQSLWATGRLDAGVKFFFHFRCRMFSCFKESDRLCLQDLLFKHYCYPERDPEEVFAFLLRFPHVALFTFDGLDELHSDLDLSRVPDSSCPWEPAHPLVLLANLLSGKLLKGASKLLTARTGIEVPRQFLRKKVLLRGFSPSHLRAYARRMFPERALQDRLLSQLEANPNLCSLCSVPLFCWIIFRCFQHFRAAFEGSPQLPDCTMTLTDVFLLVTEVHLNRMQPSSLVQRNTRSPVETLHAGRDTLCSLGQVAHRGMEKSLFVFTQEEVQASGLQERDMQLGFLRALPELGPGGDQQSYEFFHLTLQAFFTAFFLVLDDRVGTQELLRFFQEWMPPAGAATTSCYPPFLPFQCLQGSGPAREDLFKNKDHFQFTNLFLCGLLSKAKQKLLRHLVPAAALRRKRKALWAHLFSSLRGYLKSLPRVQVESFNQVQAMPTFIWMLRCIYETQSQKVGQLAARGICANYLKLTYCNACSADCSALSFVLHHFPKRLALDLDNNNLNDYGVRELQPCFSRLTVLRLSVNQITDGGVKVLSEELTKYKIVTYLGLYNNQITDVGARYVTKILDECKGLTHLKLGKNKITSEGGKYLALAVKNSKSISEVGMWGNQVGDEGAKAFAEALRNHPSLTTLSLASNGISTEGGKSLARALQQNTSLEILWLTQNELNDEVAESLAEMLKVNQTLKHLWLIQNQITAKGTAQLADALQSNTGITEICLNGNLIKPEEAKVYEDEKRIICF

Oc1nc(SCc2ccc(Cl)cc2)nc2ccsc12
IC50 (Caspase-3): 15.2 µM (active) | IC50 [1]: 8.53 µM (active) | IC50 [2]: 68.7 µM (active) | EC50 [3]: 21.9 µM (active) | IC50 [4]: 6.14 µM (active)

CCCCn1c(N)c(N(CCOC)C(=O)COC(=O)C(C)Oc2ccc(Cl)cc2)c(=O)[nH]c1=O (stereo not drawn)
AC50 (Escherichia coli): 22 µM (active)

Cc1cc(C(=O)NC2CCCc3c2cnn3-c2cccc(C)c2C)no1 (stereo not drawn)
EC50 (H4): > 120 µM (not active) | EC50 [5]: > 120 µM (not active) | IC50 (Vero [6]): 1.53 µM (active)

Cc1nc(SC(C)C(=O)NCC2CCCO2)c2cc(-c3ccccc3)sc2n1 (stereo not drawn)
CC50 (Vero [7]): > 25 µM (active) | IC50 (Vero [6]): 5.04 µM (active)

CCOc1ccc(NC(=O)c2ccc(NC(=O)COC(=O)Cc3ccc(OC)cc3)cc2)cc1
AC50 (Escherichia coli): 21.4 µM (active)

COc1ccc(Br)cc1CNC(=O)C1CCN(S(=O)(=O)N2CCC(C)CC2)CC1
IC50 (Phospholipase A2): 6.6 µM (active) | IC50 (Cysteine protease ATG4B): 9.71 µM (active)

Oc1ccc(Cl)cc1N=Nc1ccccc1
IC50 (Caspase-3): 23.6 µM (active) | IC50 [1]: 7.8 µM (active) | IC50 [2]: > 100 µM (inactive) | IC50 [4]: 35.4 µM (active)

CCN(CC)C(=O)Oc1ccc2ccccc2c1Br
CC50 [8]: 44.8 µM (active) | CC50 (Vero [7]): 22.7 µM (active) | IC50 (Vero [6]): > 25 µM (active)

Cc1ccc(-n2cc3ccc([N+](=O)[O-])cc3n2)cc1
IC50 (Caspase-3): 34.7 µM (active) | IC50 [1]: 12.5 µM (active) | IC50 [2]: 59.9 µM (active) | EC50 [3]: > 260 µM (inconclusive) | IC50 [4]: 17.2 µM (active)

CC(C)(C)C(=O)/N=C(\N)Nc1nc2ccccc2o1
IC50 (Tumor necrosis factor): 16.5 µM (active) | IC50 (HEK293): > 20 µM (inactive) | IC50 [9]: > 20 µM (inactive)

CCN(Cc1ccccc1)S(=O)(=O)c1c[nH]c(C(=O)OC)c1
AC50 (Escherichia coli): 80.5 µM (active)

COc1ccccc1OC(=O)c1ccc(C)c(S(=O)(=O)N2CCOCC2)c1
AC50 (Escherichia coli): 23.7 µM (active)

COc1ccc(C(=O)/C=C/c2cccnc2)c(OC)c1
CC50 (Vero [7]): 14.9 µM (active) | IC50 (Vero [6]): > 25 µM (active)
